Test results taken from patent US20100210557A1, “USE OF RFRP, ALONE OR IN COMBINATION WITH NEUROKININ-B, AS A THERAPEUTIC AGENT” (priority 2007, published 2010).
No end group written: not given here.

Key:
[1] = system: HCMV strain AD169; assay: HCMV plaque formation assay in MRC-5 cells; conditions: for inhibition of HCMV plaque formation as compared to the virus control: 10 micrograms per ml, 7-10 days
[2] = system: hepatitis B virus (HBV) ayw strain; assay: HBV assay in HepG2-2.2.15 cells (secreted HBV DNA by TaqMan PCR); format: cell-based; conditions: 10 micrograms per ml; six days; HBV DNA in supernatant
Text: HepG2-2.2.15 is a stable cell line containing the hepatitis B virus (HBV) ayw strain genome (ATCC Cat. No. CRL-11997). Antiviral compounds blocking any late step of viral replication such as transcription, translation, pregenome encapsidation, reverse transcription, particle assembly and release can be identified and characterized using this cell line. In this assay, an active compound will reduce the production of secreted HBV from cells, measured by utilizing real time quantitative PCR (TaqMan) assay to directly and accurately measure HBV DNA copies.
HepG2-2.2.15 cells were plated in 96-well microtiter plates. After 16-24 hours the confluent monolayer of HepG2-2.2.15 cells was washed and the medium was replaced with complete medium containing test peptides—10 micrograms per ml—in duplicate. […] Six days following the initial administration of the peptides, the cell culture supernatants was collected, treated with pronase and DNAse and then used in a real-time quantitative TaqMan PCR assay. The PCR-amplified HBV DNA was detected in real-time by monitoring increases in fluorescence signals that result from the exonucleolytic degradation of a quenched fluorescence probe molecule that hybridizes to the amplified HBV DNA. […] Antiviral activity was calculated from the reduction in HBV DNA levels (% virus control). […]

[3] = system: LPS-induced TNF-alpha production in human macrophages; assay: TNF alpha production assay (ELISA); format: cell-based; conditions: 10 micrograms per ml; LPS 200 ng/ml; overnight
Experimental: Human Peripheral Blood Mononuclear Cells (PBMC) were obtained from normal human donors. The macrophages were prepared by adherence of PBMC to the plastic wells of the plates. […] Not stimulated macrophages served as negative background control. After overnight incubation, supernatants from the control and LPS-stimulated cultures were harvested and assayed for TNF alpha production employing a TNF alpha specific ELISA.

[4] = system: spleen cells of Ovalbumin-immunized Balb/c mice; assay: Th1/Th2 cytokine profiling assay; format: cell-based, mouse; conditions: 10 micrograms per ml; Ovalbumin restimulation 10 micrograms/ml; 72 hours
Experimental: The Balb/c mice (originated in 1923, it is a popular strain and is used in many different research disciplines. […] On day 50, spleens of the mice were harvested (3 weeks after last boost with Ovalbumin). […] Thereafter, additional Ovalbumin was added to the cells at 10 micrograms/ml for in vitro restimulation of the cells. 72 hours later, cell supernatants were harvested and assayed using the Becton Dickinson Mouse […] Cytokine CBA Kit. This kit can be used to measure Interleukin-2 (IL-2), Interleukin-4 (IL-4), Interleukin-5 (IL-5), Interferon-γ (IFN-γ), and Tumor Necrosis Factor-α (TNF-α) protein levels in a single sample. The kit performance has been optimized for analysis of physiologically relevant concentrations (pg/ml levels) of specific cytokine proteins in tissue culture supernatants and serum samples.

Compound	antiviral activity of positive control compound (HCMV) ([1]; positive control)	inhibition of HBV replication as compared to the virus control infection [2] [%]	inhibition of HCMV plaque formation as compared to the virus control [1]	induction of the LPS-induced TNF-alpha production in human macrophages [3] [%]	IFNγ spleen cells; TH1 response (% of control) [4]	IL-2 spleen cells (% of control) [4]	IL-4 spleen cells; TH2 response (% of control) [4]	IL-5 spleen cells; TH2 response (% of control) [4]	TNF-a spleen cells; TH1 response (% of control) [4]
Nc1nc(O)c2ncn(COC(CO)CO)c2n1 [Ganciclovir, reference compound]	expected levels of antiviral activity	–	–	–	–	–	–	–	–
Asp-Met-His-Asp-Phe-Phe-Val-Gly-Leu-Met-NH2 (DMHDFFVGLM-NH2) [Peptide 2]	–	78.5	did not inhibit	15.9	126.8 % of control	198.0 % of control	103.5 % of control	99.2 % of control	151.0 % of control
Met-Pro-His-Ser-Phe-Ala-Asn-Leu-Pro-Leu-Arg-Phe-NH2 (MPHSFANLPLRF-NH2) [Peptide 1]	–	77.8	did not inhibit	21.7	57.5 % of control	239.7 % of control	168.7 % of control	99.2 % of control	106.3 % of control
